Laboratory results from patent US11787810B2, “Diacylglyceride O-acyltransferase 2 inhibitors” (Merck Sharp & Dohme Corp., priority 2020, dated 2023).
Like-named read-outs stand apart in the source and are kept apart here.

Target: human DGAT2 (hDGAT2) (Homo sapiens (Human), UniProt Q96PD7)
Assay: DGAT2 enzymatic activity assay (13C18-triolein formation, LC/MS/MS)
Type: biochemical
Experimental: Sf-9 insect cells were maintained in Grace's insect cell culture medium with 10% heated-inactivated fetal bovine serum, 1% Pluronic F-68 and 0.14 μg/ml Kanamycine sulfate at 27° C. in a shaker incubator. After infection with untagged baculovirus expressing human DGAT2 (hDGAT2) at multiplicity of infection (MOI) 3 for 48 hours, cells were harvested. Cell pellets were suspended in buffer containing 10 mM Tris-HCl pH 7.5, 1 mM EDTA, 250 mM sucrose and Complete Protease Inhibitor Cocktail (Sigma Aldrich), and sonicated on ice. Cell debris were removed by centrifugation at 2000×g for 15 minutes. Membrane fractions were isolated by ultracentrifugation (100,000×g), resuspended in the same buffer, and frozen (−80° C.) for later use. The protein concentration was determined with the Pierce™ BCA Protein Assay Kit (Thermo Fisher Scientific). Expression of protein levels was analyzed by immunoblotting with rabbit anti-DGAT2 antibody (Abcam, ab102831) and donkey anti-rabbit IgG H&L Alexa Fluor® 647 (Abcam, ab150075) followed by detection using Typhoon FLA9000 (GE Healthcare).
LC/MS/MS analyses were performed using Thermal Fisher's LX4-TSQ Vantage system. This system consists of an Agilent binary high-performance liquid chromatography (HPLC) pumps and a TSQ Vantage triple quadrupole MS/MS instrument. For each sample, 2 μL samples from the top organic layer of in-plate liquid-liquid extraction were injected onto a Thermo Betabasic C4 column (2.1 mm×20 mm, 5 μm particle size). The samples were then eluted using the following conditions; mobile phase: Isopropanol:acetonitrile/10 mM ammonium formate=50/35/15 (v/v/v), flow rate: 0.8 mL/min, temperature: 25° C. Data was acquired in positive mode using a heated electrospray ionization (HESI) interface. The operational parameters for the TSQ Vantage MS/MS instrument were a spray voltage of 3000 V, capillary temperature of 280° C., vaporizer temperature 400° C., sheath gas 45 arbitrary unit, Aux gas 10 arbitrary units, S-lens 165 and collision gas 1.0 mTorr. […] (SRM) chromatograms of ^13C18-triolein (Q1: 920.8>Q3:621.3) and internal standard ^13C21-triolein (Q1: 923.8>Q3:617.3) were collected for 33 sec. The peak area was integrated by Xcalibur Quan software. The ratio between the ^13C18triolein generated in the reaction and spiked in internal standard ^13C21-triolein was used to generate percentage inhibition and IC50 values. Compound percentage inhibition was calculated by the following formula: Inhibition %=1-[(compound response−low control)/(high control−low control)]×100%. Potent compounds were titrated and IC50 were calculated by 4 parameter sigmoidal curve fitting formula.
DGAT2 activity was determined by measuring the amount of enzymatic product ^13C18-triolein (^13C-1,2,3-Tri(cis-9-octadecenoyl)glycerol) using the membrane prep mentioned above. The assay was carried out in ABgene 384-well assay plates in a final volume of 25 μL at rt. The assay mixture contained the following: assay buffer (100 mM Tris·Cl, pH 7.0, 20 mM MgCl2, 5% ethanol), 25 μM of diolein, 5 μM of ^13C oleoyl-CoA and 8 ng/μL of DGAT2 membrane.

[1] = hDGAT2 Sf-9 membrane prep, 25 μM diolein, 5 μM 13C oleoyl-CoA, read-out: Human DGAT2 IC50

human DGAT2 (hDGAT2), sequence (Q96PD7 whole entry): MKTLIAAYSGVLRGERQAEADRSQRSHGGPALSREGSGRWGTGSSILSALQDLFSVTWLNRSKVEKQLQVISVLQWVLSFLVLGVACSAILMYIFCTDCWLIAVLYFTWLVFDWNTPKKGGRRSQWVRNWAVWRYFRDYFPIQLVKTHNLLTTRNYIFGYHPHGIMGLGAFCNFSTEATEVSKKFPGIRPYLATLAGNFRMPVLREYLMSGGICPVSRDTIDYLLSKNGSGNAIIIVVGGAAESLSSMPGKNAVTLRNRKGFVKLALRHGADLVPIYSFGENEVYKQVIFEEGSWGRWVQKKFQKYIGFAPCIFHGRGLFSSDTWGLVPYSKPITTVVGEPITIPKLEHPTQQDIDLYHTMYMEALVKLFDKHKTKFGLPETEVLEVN

SMILES | IC50 [1] [µM] | IC50 (table head without 'Human', same membrane assay, read-out: DGAT2 IC50) [µM]
CCC(C)n1nc(-c2cccc(OC(F)F)c2)c2ncc(C(=O)NC3(C)CS(=O)(=O)C3)cc21 (single isomer, unassigned) [Example 66b, 3-[3-(difluoromethoxy)phenyl]-N-(3-methyl-1,1-dioxo-thietan-3-yl)-1-sec-butyl-pyrazolo[4,3-b]pyridine-6-carboxamide] | 0.0015 | –
CC1(NC(=O)c2cnc3c(-c4cccc(OC(F)F)c4)nn(CC(O)C(F)(F)F)c3c2)CS(=O)(=O)C1 (single isomer, unassigned) [Example 67a, 3-(3-(difluoromethoxy)phenyl)-N-(3-methyl-1,1-dioxidothietan-3-yl)-1-(3,3,3-trifluoro-2-hydroxypropyl)-1H-pyrazolo[4,3-b]pyridine-6-carboxamide] | 0.073 | –
CC1(NC(=O)c2cnc3c(-c4cccc(OC(F)F)c4)nn(CC(O)C(F)(F)F)c3c2)CS(=O)(=O)C1 (single isomer, unassigned) [Example 67b, 3-(3-(difluoromethoxy)phenyl)-N-(3-methyl-1,1-dioxidothietan-3-yl)-1-(3,3,3-trifluoro-2-hydroxypropyl)-1H-pyrazolo[4,3-b]pyridine-6-carboxamide] | 0.09 | –
CC(O)Cn1nc(-c2cccc(OC(F)F)c2)c2ncc(C(=O)NC3(C)CS(=O)(=O)C3)cc21 (single isomer, unassigned) [Example 68a, 3-(3-(difluoromethoxy)phenyl)-1-(2-hydroxypropyl)-N-(3-methyl-1,1-dioxidothietan-3-yl)-1H-pyrazolo[4,3-b]pyridine-6-carboxamide] | 0.018 | –
CC(O)Cn1nc(-c2cccc(OC(F)F)c2)c2ncc(C(=O)NC3(C)CS(=O)(=O)C3)cc21 (single isomer, unassigned) [Example 68b, 3-(3-(difluoromethoxy)phenyl)-1-(2-hydroxypropyl)-N-(3-methyl-1,1-dioxidothietan-3-yl)-1H-pyrazolo[4,3-b]pyridine-6-carboxamide] | 0.179 | –
CC(C)n1nc(-c2cccc(OC(F)F)c2)c2ncc(C(=O)NC3(C(C)O)CCOCC3)cc21 (single isomer, unassigned) [Example 73a, 3-(3-(difluoromethoxy)phenyl)-N-(4-(1-hydroxyethyl)tetrahydro-2H-pyran-4-yl)-1-isopropyl-1H-pyrazolo[4,3-b]pyridine-6-carboxamide] | 0.119 | –
CC(C)n1nc(-c2cccc(OC(F)F)c2)c2ncc(C(=O)NC3(C(C)O)CCOCC3)cc21 (single isomer, unassigned) [Example 73b, 3-(3-(difluoromethoxy)phenyl)-N-(4-(1-hydroxyethyl)tetrahydro-2H-pyran-4-yl)-1-isopropyl-1H-pyrazolo[4,3-b]pyridine-6-carboxamide] | 0.074 | –
CC1(NC(=O)c2cnc3c(-c4cccc(OC(F)F)c4)nn(C4CCOCC4F)c3c2)CS(=O)(=O)C1 (single isomer, unassigned) [Example 75a, 3-(3-(difluoromethoxy)phenyl)-1-(3-fluorotetrahydro-2H-pyran-4-yl)-N-(3-methyl-1,1-dioxidothietan-3-yl)-1H-pyrazolo[4,3-b]pyridine-6-carboxamide] | 0.029 | –
CC1(NC(=O)c2cnc3c(-c4cccc(OC(F)F)c4)nn(C4CCOCC4F)c3c2)CS(=O)(=O)C1 (single isomer, unassigned) [Example 75b, 3-(3-(difluoromethoxy)phenyl)-1-(3-fluorotetrahydro-2H-pyran-4-yl)-N-(3-methyl-1,1-dioxidothietan-3-yl)-1H-pyrazolo[4,3-b]pyridine-6-carboxamide] | 0.009 | –
CC1(NC(=O)c2cnc3c(-c4cccc(OC(F)F)c4)nn(C4CCOC(C(F)(F)F)C4)c3c2)CS(=O)(=O)C1 (single isomer, unassigned) [Example 76a, 3-(3-(difluoromethoxy)phenyl)-N-(3-methyl-1,1-dioxidothietan-3-yl)-1-(2-(trifluoromethyl)tetrahydro-2H-pyran-4-yl)-1H-pyrazolo[4,3-b]pyridine-6-carboxamide] | 0.021 | –
CC1(NC(=O)c2cnc3c(-c4cccc(OC(F)F)c4)nn(C4CCOC(C(F)(F)F)C4)c3c2)CS(=O)(=O)C1 (single isomer, unassigned) [Example 76b, 3-(3-(difluoromethoxy)phenyl)-N-(3-methyl-1,1-dioxidothietan-3-yl)-1-(2-(trifluoromethyl)tetrahydro-2H-pyran-4-yl)-1H-pyrazolo[4,3-b]pyridine-6-carboxamide] | 0.211 | –

More lines, now with the values ahead:

IC50 [1] [µM] | IC50 (table head without 'Human', same membrane assay, read-out: DGAT2 IC50) [µM] | SMILES
0.14 | – | CC1(NC(=O)c2cnc3c(-c4cccc(OC(F)F)c4)nn(C4CCOC(C)(C)C4)c3c2)CS(=O)(=O)C1 (single isomer, unassigned) [Example 77a, 3-(3-(difluoromethoxy)phenyl)-1-(2,2-dimethyltetrahydro-2H-pyran-4-yl)-N-(3-methyl-1,1-dioxidothietan-3-yl)-1H-pyrazolo[4,3-b]pyridine-6-carboxamide]
0.0074 | – | CC1(NC(=O)c2cnc3c(-c4cccc(OC(F)F)c4)nn(C4CCOC(C)(C)C4)c3c2)CS(=O)(=O)C1 (single isomer, unassigned) [Example 77b, 3-(3-(difluoromethoxy)phenyl)-1-(2,2-dimethyltetrahydro-2H-pyran-4-yl)-N-(3-methyl-1,1-dioxidothietan-3-yl)-1H-pyrazolo[4,3-b]pyridine-6-carboxamide]
1.73 | – | CC(O)C(C)n1nc(-c2cccc(OC(F)F)c2)c2ncc(C(=O)NC3(C)CS(=O)(=O)C3)cc21 (single isomer, unassigned) [Example 78a, 3-(3-(difluoromethoxy)phenyl)-1-(3-hydroxybutan-2-yl)-N-(3-methyl-1,1-dioxidothietan-3-yl)-1H-pyrazolo[4,3-b]pyridine-6-carboxamide]
0.0044 | – | CC(O)C(C)n1nc(-c2cccc(OC(F)F)c2)c2ncc(C(=O)NC3(C)CS(=O)(=O)C3)cc21 (single isomer, unassigned) [Example 78b, 3-(3-(difluoromethoxy)phenyl)-1-(3-hydroxybutan-2-yl)-N-(3-methyl-1,1-dioxidothietan-3-yl)-1H-pyrazolo[4,3-b]pyridine-6-carboxamide]
0.121 | – | CC(O)C(C)n1nc(-c2cccc(OC(F)F)c2)c2ncc(C(=O)NC3(C)CS(=O)(=O)C3)cc21 (single isomer, unassigned) [Example 78c, 3-(3-(difluoromethoxy)phenyl)-1-(3-hydroxybutan-2-yl)-N-(3-methyl-1,1-dioxidothietan-3-yl)-1H-pyrazolo[4,3-b]pyridine-6-carboxamide]
0.047 | – | CC(O)C(C)n1nc(-c2cccc(OC(F)F)c2)c2ncc(C(=O)NC3(C)CS(=O)(=O)C3)cc21 (single isomer, unassigned) [Example 78d, 3-(3-(difluoromethoxy)phenyl)-1-(3-hydroxybutan-2-yl)-N-(3-methyl-1,1-dioxidothietan-3-yl)-1H-pyrazolo[4,3-b]pyridine-6-carboxamide]
0.07 | – | CC1(C#N)CC(n2nc(-c3cccc(OC(F)F)c3)c3ncc(C(=O)NC4(C)CS(=O)(=O)C4)cc32)C1 (single isomer, unassigned) [Example 87a, 1-(3-cyano-3-methylcyclobutyl)-3-(3-(difluoromethoxy)phenyl)-N-(3-methyl-1,1-dioxidothietan-3-yl)-1H-pyrazolo[4,3-b]pyridine-6-carboxamide]
0.27 | – | CC1(C#N)CC(n2nc(-c3cccc(OC(F)F)c3)c3ncc(C(=O)NC4(C)CS(=O)(=O)C4)cc32)C1 (single isomer, unassigned) [Example 87b, 1-(3-cyano-3-methylcyclobutyl)-3-(3-(difluoromethoxy)phenyl)-N-(3-methyl-1,1-dioxidothietan-3-yl)-1H-pyrazolo[4,3-b]pyridine-6-carboxamide]
– | 0.0028 | CC(n1nc(-c2cccc(OC(F)F)c2)c2ncc(C(=O)NC3(C)CS(=O)(=O)C3)cc21)C(C)(C)O (single isomer, unassigned) [Example 130a, 3-(3-(difluoromethoxy)phenyl)-1-(3-hydroxy-3-methylbutan-2-yl)-N-(3-methyl-1,1-dioxidothietan-3-yl)-1H-pyrazolo[4,3-b]pyridine-6-carboxamide]
